Experimental data reported in patent US11147272B2, “Pyridone compounds and agricultural and horticultural fungicides comprising the same as active ingredients” (MITSUI CHEMICALS AGRO, INC., priority 2017, dated 2021).

Assays:
[1] = system: Alternaia brassicicola; assay: Test Example C: Alternaria sooty spot on cabbage; assay type: in vivo; conditions: Alternaria sooty spot on cabbage; class of control value
Text: Seeds of a test plant (cabbage variety: Shikidori) were planted and cultivated until the cotyledons extended.
<Control Value> Control value=100{1−(n/3)}

[2] = system: Phytophthora infestans; assay: whole plant or invertebrate; assay type: in vivo; conditions: Late blight on tomato; class of control value
[3] = system: Colletotrichum orbiculare; assay: Test Example H: Anthracnose on cucumber; conditions: Anthracnose on cucumber (Sagami Hanjiro); 250 ppm spray, 2.5 ml/pot; assessed 6 to 10 days after inoculation
Experimental: Seeds of a test plant (cucumber variety: Sagami Hanjiro) were planted and cultivated until the first leaf appeared. In the test, the inventive compounds were dissolved into dimethyl sulfoxide-methanol mixture solution (volume ratio: 9/1), and the resultant solutions were diluted with well water to a concentration of 250 ppm to obtain the drug solutions. The drug solutions were sprayed to the test plant (2.5 ml/pot). After the drug solutions dried, a conidial suspension (2-4×10^5 conidia/ml) of Colletotrichum orbiculare was inoculated to the plant by spraying. After the inoculation, the plant was kept in a mist chamber at room temperature of 20 to 23° C. for about 24 hours to promote the onset of disease. The degrees of disease development were investigated 6 to 10 days after the inoculation, and the effectiveness of the drug solutions was evaluated.
In Test Examples described above, the degrees of disease development were evaluated in increments of 0.05 from 0 (as no incidence of disease) to 3 (as the degree of disease development in an untreated plant group). Further, control values were calculated using the following equation based on the degree of disease development.
n=Degree of disease development in each treated group
In the table, H: more than 50% control value, L: 50% or less control value, and nt: not tested.

[4] = system: Magnaporthe grisea; assay: whole plant or invertebrate; assay type: in vivo; conditions: Blast on rice; class of control value
[5] = system: Plasmopara viticola; assay: Test Example G: Downy mildew on vine; conditions: Downy mildew on vine (Neomuscat); 250 ppm spray, 2.5 ml/pot; assessed 7 to 10 days after inoculation
[6] = system: Botrytis cinerea; assay: Test Example B: Gray mold on tomato; conditions: Gray mold on tomato; class of control value
[7] = system: Puccinia recondita; assay: Test Example E: Brown rust on wheat; assay type: in vivo; conditions: Brown rust on wheat; class of control value
[8] = system: Blumeria graminis f. sp. hordei; assay: Test Example D: Powdery mildew on barley; conditions: Powdery mildew on barley; class of control value

| Compound | Test C control value class [1] | Test F control value class [2] | Test H control value class [3] | Test A control value class [4] | Test G control value class [5] | Test B control value class [6] | Test E control value class [7] | Test D control value class [8] |
| --- | --- | --- | --- | --- | --- | --- | --- | --- |
| C#CCOc1ccc(-c2c(CC(C)C)cc(Cl)c(=O)n2CC)c(F)c1 [compound 125] | H (more than 50% control value) | L (50% or less control value) | H (more than 50% control value) | H (more than 50% control value) | H (more than 50% control value) | H (more than 50% control value) | H (more than 50% control value) | H (more than 50% control value) |
| CCCOc1ccc(-c2c(CC(C)C)cc(Cl)c(=O)n2CC)c(F)c1 [compound 126] | H (more than 50% control value) | L (50% or less control value) | H (more than 50% control value) | L (50% or less control value) | H (more than 50% control value) | H (more than 50% control value) | H (more than 50% control value) | H (more than 50% control value) |
| CCn1c(-c2ccc(OCC#N)cc2F)c(CC(C)C)cc(Cl)c1=O [compound 127] | H (more than 50% control value) | L (50% or less control value) | H (more than 50% control value) | L (50% or less control value) | H (more than 50% control value) | H (more than 50% control value) | H (more than 50% control value) | H (more than 50% control value) |
| CCn1c(-c2ccc(OCSC)cc2F)c(CC(C)C)cc(Cl)c1=O [compound 128] | H (more than 50% control value) | L (50% or less control value) | H (more than 50% control value) | H (more than 50% control value) | H (more than 50% control value) | H (more than 50% control value) | H (more than 50% control value) | H (more than 50% control value) |
| CCn1c(-c2ccc(OCC3CC3)cc2F)c(CC(C)C)cc(Cl)c1=O [compound 129] | H (more than 50% control value) | L (50% or less control value) | L (50% or less control value) | L (50% or less control value) | H (more than 50% control value) | H (more than 50% control value) | H (more than 50% control value) | H (more than 50% control value) |
| CCn1c(-c2c(F)cc(OC)cc2F)c(CN(OC)C(C)=O)cc(Cl)c1=O [compound 130] | H (more than 50% control value) | L (50% or less control value) | H (more than 50% control value) | H (more than 50% control value) | H (more than 50% control value) | L (50% or less control value) | H (more than 50% control value) | L (50% or less control value) |
| CCn1c(-c2c(F)cc(OC)cc2F)c(CN(OC)C(=O)OC)cc(Cl)c1=O [compound 131] | H (more than 50% control value) | L (50% or less control value) | H (more than 50% control value) | H (more than 50% control value) | H (more than 50% control value) | H (more than 50% control value) | H (more than 50% control value) | H (more than 50% control value) |
| CCn1c(-c2c(F)cc(F)cc2F)c(CN(OC)C(C)=O)cc(Cl)c1=O [compound 132] | H (more than 50% control value) | L (50% or less control value) | L (50% or less control value) | H (more than 50% control value) | L (50% or less control value) | L (50% or less control value) | L (50% or less control value) | L (50% or less control value) |
| CCn1c(-c2c(F)cc(F)cc2F)c(CN(OC)C(=O)OC)cc(Cl)c1=O [compound 133] | H (more than 50% control value) | L (50% or less control value) | H (more than 50% control value) | H (more than 50% control value) | H (more than 50% control value) | H (more than 50% control value) | H (more than 50% control value) | H (more than 50% control value) |
| CC(C)Cc1ccc(=O)n(C)c1-c1ccc(Cl)cc1Cl [compound 134] | L (50% or less control value) | L (50% or less control value) | L (50% or less control value) | H (more than 50% control value) | H (more than 50% control value) | H (more than 50% control value) | H (more than 50% control value) | H (more than 50% control value) |
| CCn1c(-c2ccc(Cl)cc2Cl)c(CC(C)C)ccc1=O [compound 135] | H (more than 50% control value) | L (50% or less control value) | H (more than 50% control value) | H (more than 50% control value) | H (more than 50% control value) | H (more than 50% control value) | H (more than 50% control value) | H (more than 50% control value) |
